Measurements: US20240409585A1, “MACROCYCLIC IMMUNOMODULATORS” (priority 2021, published 2024)
Numbered stars: 1 amine (or outer) side, 2 acyl side, 3 side chain; on linkers, the order of the positions; unused ones are H or OH. Bridge positions count the residues as written; N and C are the ends. Square brackets hold non-standard residues; d marks the D form. Peptide text beside a SMILES is read from it. * marks the point of attachment. Bip(4'-COOH) = N[C@@H](Cc1ccc(-c2ccc(C(=O)O)cc2)cc1)C(=O)O; X14 = O=C(C[C@H](N[*:1])C(=O)[*:2])NS(=O)(=O)c1ccc(F)cc1; Phe(3-CF3) = N[C@@H](Cc1cccc(C(F)(F)F)c1)C(=O)O; X3 = CC(=O)NCc1cccc(C[C@H](N[*:1])C(=O)[*:2])c1; Ala(morpholin-4-yl) = N[C@@H](CN1CCOCC1)C(=O)O; Phe(4-COOH) = N[C@@H](Cc1ccc(C(=O)O)cc1)C(=O)O; Phe(2,4-Cl2) = N[C@@H](Cc1ccc(Cl)cc1Cl)C(=O)O; Bip = N[C@@H](Cc1ccc(-c2ccccc2)cc1)C(=O)O; Phe(3-I) = N[C@@H](Cc1cccc(I)c1)C(=O)O; Phe(3-Me) = Cc1cccc(C[C@H](N)C(=O)O)c1; Cha = N[C@@H](CC1CCCCC1)C(=O)O; Carboxymethyl = O=C(O)C*; NMeA = CN[C@@H](C)C(=O)O; Orn = NCCC[C@H](N)C(=O)O; Dab = NCC[C@H](N)C(=O)O

Legend:
[1] = biological target: T1, PE-labeled human PD-L1-Ig binding to Jurkat cell line over-expressing human PD-1 (Jurkat-PD-1) (Homo sapiens, UniProt Q15116); assay: Jurkat-PD-1 Cell Binding High-Content Screening Assay (CBA): Method 2 (presence and absence of tween-20); conditions: Jurkat-PD-1 cells, PE-labeled PD-L1-Ig 20 nM; presence or absence of tween-20 not given; head μM; read-out: CBA Method 2 μM
T1 construct: expressed in transfected cells; host or cells: Jurkat
T1 sequence (Q15116 25-288): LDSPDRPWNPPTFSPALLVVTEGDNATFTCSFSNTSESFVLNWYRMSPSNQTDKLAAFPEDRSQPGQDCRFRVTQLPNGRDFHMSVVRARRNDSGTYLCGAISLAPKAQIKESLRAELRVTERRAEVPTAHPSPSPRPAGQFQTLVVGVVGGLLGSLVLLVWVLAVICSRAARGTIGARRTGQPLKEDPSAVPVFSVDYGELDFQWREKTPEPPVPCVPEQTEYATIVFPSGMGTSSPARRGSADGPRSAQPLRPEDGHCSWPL
Description: Jurkat-PD-1 Cell Binding High-Content Screening Assay (CBA): Method 2
Phycoerythrin (PE) was covalently linked to the Ig epitope tag of human PD-L1-Ig and fluorescently labeled PD-L1-Ig was used for binding studies with a Jurkat cell line over-expressing human PD-1 (Jurkat-PD-1). […] 100 nl of compound was added to cells followed by incubation at 37° C. for 2 hours. To interrogate potential issues with compound aggregation, compounds were tested in the presence and absence of tween-20 detergent. […] Then, 5 μl of PE-labeled PD-L1-Ig (20 nM final), diluted in DMEM supplemented with 10% fetal calf serum. […] Data was collected and processed using a Cell Insight NXT High Content Imager and associated software.

[2] = biological target: T1, PE-labeled human PD-L1-Ig binding to Jurkat cell line over-expressing human PD-1 (Jurkat-PD-1); assay: Jurkat-PD-1 Cell Binding High-Content Screening Assay (CBA): Method 1; conditions: Jurkat-PD-1 cells, PE-labeled PD-L1-Ig; μM; read-out: CBA Method 1 μM

Row | SMILES | IC50 [1] | IC50 [2]
1 | Cc1cccc(C[C@@H]2NC(=O)[C@H](CC(=O)O)NC(=O)[C@H](Cc3ccc(OCC(=O)O)cc3)NC(=O)[C@H](CN3CCOCC3)NC(=O)CSC[C@@H](C(=O)N[C@@H](CCN)C(N)=O)NC(=O)[C@H](CCCN)NC(=O)[C@H](C(C)C)NC(=O)[C@H](Cc3ccc(Cl)cc3Cl)NC(=O)[C@H](CCN)NC(=O)[C@@H](CC(C)C)NC(=O)[C@H](C)N(C)C(=O)[C@H](CCC(N)=O)NC(=O)[C@H](Cc3ccc(-c4ccccc4)cc3)NC(=O)[C@H](Cc3ccc(C(=O)O)cc3)NC2=O)c1 [Example 5041] ({CH2CO}-[Ala(morpholin-4-yl)]Y(Carboxymethyl)D[Phe(3-Me)][Phe(4-COOH)][Bip]Q[NMeA][dL][Dab][Phe(2,4-Cl2)]V[Orn]C[Dab]-NH2; thioether N-14) | 0.0822 µM | 0.0888 µM
2 | CC(C)C[C@H]1NC(=O)[C@H](C)N(C)C(=O)[C@H](CCC(N)=O)NC(=O)[C@H](Cc2ccc(-c3ccccc3)cc2)NC(=O)[C@H](Cc2ccc(-c3ccc(C(=O)O)cc3)cc2)NC(=O)[C@H](Cc2cccc(C(F)(F)F)c2)NC(=O)[C@H](CC(=O)O)NC(=O)[C@H](Cc2ccc(C(=O)O)cc2)NC(=O)[C@H](CN2CCOCC2)NC(=O)CSC[C@@H](C(=O)N[C@@H](CCN)C(N)=O)NC(=O)[C@H](CCCN)NC(=O)[C@H](C(C)C)NC(=O)[C@H](CC2CCCCC2)NC(=O)[C@H](CCN)NC1=O [Example 5058] ({CH2CO}-[Ala(morpholin-4-yl)][Phe(4-COOH)]D[Phe(3-CF3)][Bip(4'-COOH)][Bip]Q[NMeA][dL][Dab][Cha]V[Orn]C[Dab]-NH2; thioether N-14) | 0.0024 µM | 0.0032 µM
3 | Cc1cccc(C[C@@H]2NC(=O)[C@H](CC(=O)O)NC(=O)[C@H](Cc3ccc(OCC(=O)O)cc3)NC(=O)[C@H](Cc3cccc(I)c3)NC(=O)CSC[C@@H](C(=O)N[C@@H](CCN)C(N)=O)NC(=O)[C@H](CCCN)NC(=O)[C@H](C(C)C)NC(=O)[C@H](CC3CCCCC3)NC(=O)[C@H](CCN)NC(=O)[C@@H](CC(C)C)NC(=O)[C@H](C)N(C)C(=O)[C@H](CCC(N)=O)NC(=O)[C@H](Cc3ccc(-c4ccccc4)cc3)NC(=O)[C@H](Cc3ccc(C(=O)O)cc3)NC2=O)c1 [Example 5036] ({CH2CO}-[Phe(3-I)]Y(Carboxymethyl)D[Phe(3-Me)][Phe(4-COOH)][Bip]Q[NMeA][dL][Dab][Cha]V[Orn]C[Dab]-NH2; thioether N-14) | 0.0031 µM | 0.0045 µM
4 | CC(C)C[C@H]1NC(=O)[C@H](C)N(C)C(=O)[C@H](CCC(N)=O)NC(=O)[C@H](Cc2ccc(-c3ccccc3)cc2)NC(=O)[C@H](Cc2ccc(C(=O)O)cc2)NC(=O)[C@H](Cc2cccc(C(F)(F)F)c2)NC(=O)[C@H](CC(=O)NS(=O)(=O)c2ccc(F)cc2)NC(=O)[C@H](Cc2ccc(C(=O)O)cc2)NC(=O)[C@H](CN2CCOCC2)NC(=O)CSC[C@@H](C(=O)N[C@@H](CCN)C(N)=O)NC(=O)[C@H](CCCN)NC(=O)[C@H](C(C)C)NC(=O)[C@H](CC2CCCCC2)NC(=O)[C@H](CCN)NC1=O [Example 5079] ({CH2CO}-[Ala(morpholin-4-yl)][Phe(4-COOH)][X14][Phe(3-CF3)][Phe(4-COOH)][Bip]Q[NMeA][dL][Dab][Cha]V[Orn]C[Dab]-NH2; thioether N-14) | 0.229 µM | 0.138 µM
5 | CC(=O)NCc1cccc(C[C@@H]2NC(=O)CSC[C@@H](C(=O)N[C@@H](CCN)C(N)=O)NC(=O)[C@H](CCCN)NC(=O)[C@H](C(C)C)NC(=O)[C@H](CC3CCCCC3)NC(=O)[C@H](CCN)NC(=O)[C@@H](CC(C)C)NC(=O)[C@H](C)N(C)C(=O)[C@H](CCC(N)=O)NC(=O)[C@H](Cc3ccc(-c4ccccc4)cc3)NC(=O)[C@H](Cc3ccc(C(=O)O)cc3)NC(=O)[C@H](Cc3cccc(C)c3)NC(=O)[C@H](CC(=O)O)NC(=O)[C@H](Cc3ccc(OCC(=O)O)cc3)NC2=O)c1 [Example 5033] ({CH2CO}-[X3]Y(Carboxymethyl)D[Phe(3-Me)][Phe(4-COOH)][Bip]Q[NMeA][dL][Dab][Cha]V[Orn]C[Dab]-NH2; thioether N-14) | 0.0033 µM | 0.0032 µM
6 | Cc1cccc(C[C@@H]2NC(=O)[C@H](CC(=O)O)NC(=O)[C@H](Cc3ccc(OCC(=O)O)cc3)NC(=O)[C@H](CN3CCOCC3)NC(=O)CSC[C@@H](C(=O)N[C@@H](CCN)C(N)=O)NC(=O)[C@H](CCCN)NC(=O)[C@H](C(C)C)NC(=O)[C@H](CC3CCCCC3)NC(=O)[C@H](CCN)NC(=O)[C@@H](CC(C)C)NC(=O)[C@H](C)N(C)C(=O)[C@H](Cc3ccc(C(=O)O)cc3)NC(=O)[C@H](Cc3ccc(-c4ccccc4)cc3)NC(=O)[C@H](Cc3ccc(C(=O)O)cc3)NC2=O)c1 [Example 5045] ({CH2CO}-[Ala(morpholin-4-yl)]Y(Carboxymethyl)D[Phe(3-Me)][Phe(4-COOH)][Bip][Phe(4-COOH)][NMeA][dL][Dab][Cha]V[Orn]C[Dab]-NH2; thioether N-14) | 0.0014 µM | 0.0016 µM
